In patent US10351706B2, “Near-infrared fluorescent dyes and uses thereof” (East China University of Science and Technology, priority 2015, dated 2019):

Key:
[1] = UV-visible absorption spectral test (Shimadzu UV2600 UV-visible spectrometer); assay type: physicochemical; details: different dyes in chloroform solution
Excerpt: (§1) The following data are the spectral test data of compound 3d in different solvents (UV-visible data are taken from Shimadzu UV2600 UV-visible spectrometer and fluorescence data are taken from PTI QM4 fluorescence spectrometer):
(§2) The following data are the spectral test data of different dyes in chloroform solution: […]

[2] = Fluorescence spectral test (PTI QM4 fluorescence spectrometer); assay type: physicochemical; details: different dyes in chloroform solution
Excerpt: as §1, §2

SMILES | Extinction coefficient [1] [cm^−1M^−1] | Maximum absorption wavelength [1] [nm] | Maximum emission wavelength [2] [nm]
CCN(CC)c1ccc2cc3c(cc2c1)C1(c2ccccc2Oc2ccccc21)c1cc2c(cc1=C3c1ccccc1C)C=CC(=[N+](CC)CC)C=2 [Compound 1a] | 217000 | 836 | 864
Cc1ccccc1C1=c2cc3c(cc2C2(c4ccccc4Oc4ccccc42)c2cc4cc(O)ccc4cc21)=CC(=O)C=C3 [Compound 4b] | 131000 | 779 | 804
